From patent US6706757B2, “Chroman derivatives as 5-hydroxytryptamine-6 ligands” (Wyeth, priority 2001, dated 2004) come the findings set out here.

Where a name gives a salt, the structure may show the parent alone.

The term Ki denotes the dissociation constant of the complex between target and ligand, obtained from inhibition or displacement. Read a low Ki as higher affinity.

This experiment deals with T1, human cloned 5-HT6 receptors (Homo sapiens, UniProt P50406).
T1 construct: expressed in transfected cells; host or cells: HeLa cells (membrane preparation)
T1 sequence (P50406 whole entry): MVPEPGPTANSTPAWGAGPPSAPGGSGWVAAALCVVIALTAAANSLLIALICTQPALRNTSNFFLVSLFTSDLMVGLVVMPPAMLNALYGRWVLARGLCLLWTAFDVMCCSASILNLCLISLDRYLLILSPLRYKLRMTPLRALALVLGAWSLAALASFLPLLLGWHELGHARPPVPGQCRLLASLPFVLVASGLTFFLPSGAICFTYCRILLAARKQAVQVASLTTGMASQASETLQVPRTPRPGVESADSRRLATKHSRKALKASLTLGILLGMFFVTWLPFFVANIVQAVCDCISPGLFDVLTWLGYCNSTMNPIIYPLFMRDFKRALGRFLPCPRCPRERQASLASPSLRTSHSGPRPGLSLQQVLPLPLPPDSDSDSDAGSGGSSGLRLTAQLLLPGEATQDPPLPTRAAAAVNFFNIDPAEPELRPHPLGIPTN
Briefly: 5-HT6 binding affinity, [3H]-LSD displacement on membranes of Hela cells expressing human cloned 5-HT6 receptors. The note with it: [3H]-LSD 3.0 nM, Hela cell membranes, 120 min at room temperature. The protocol: The affinity of test compounds for the serotonin 5-HT6 receptor is evaluated in the following manner. Cultured Hela cells expressing human cloned 5-HT6 receptors are harvested and centrifuged at low speed (1,000×g) for 10.0 min to remove the culture media. The harvested cells are suspended in half volume of fresh physiological phosphate buffered saline solution and recentrifuged at the same speed. This operation is repeated. The collected cells are then homogenized in ten volumes of 50 mM Tris.HCl (pH 7.4) and 0.5 mM EDTA. The homogenate is centrifuged at 40,000×g for 30.0 min and the precipitate is collected. The obtained pellet is resuspended in 10 volumes of Tris.HCl buffer and recentrifuged at the same speed. The final pellet is suspended in a small volume of Tris.HCl buffer and the tissue protein content is determined in aliquots of 10-25 μl volumes. Bovine Serum Albumin is used as the standard in the protein determination according to the method described in Lowry et al., J. Biol. Chem., 193:265 (1951). The volume of the suspended cell membranes is adjusted to give a tissue protein concentration of 1.0 mg/ml of suspension. The prepared membrane suspension (10 times concentrated) is aliquoted in 1.0 ml volumes and stored at −70° C. until used in subsequent binding experiments.
Binding experiments are performed in a 96 well microtiter plate format, in a total volume of 200 μl. […] The test compounds are added in 20.0 μl volume.
The reaction is allowed to proceed in the dark for 120 min at room temperature, at which time, the bound ligand-receptor complex is filtered off on a 96 well unifilter with a Packard Filtermate® 196 Harvester. The bound complex caught on the filter disk is allowed to air dry and the radioactivity is measured in a Packard TopCount® equipped with six photomultiplier detectors, after the addition of 40.0 μl Microscint®-20 scintillant to each shallow well. The unifilter plate is heat-sealed and counted in a PackardTopCount® with a tritium efficiency of 31.0%.
Binding in the presence of varying concentrations of test compound is expressed as a percentage of specific binding in the absence of test compound. The results are plotted as log % bound versus log concentration of test compound. […] A linear regression line of data points is plotted, from which the IC50 value is determined and the Ki value is determined based upon the following equation: […]
where L is the concentration of the radioactive ligand used and KD is the dissociation constant of the ligand for the receptor, both expressed in nM.
Consider `O=S(=O)(Nc1ccc2c(c1)OC(CN1CCSCC1)CC2)c1ccccc1` (centres unmarked) [Example 26, N-[2-(thiomorpholin-4-ylmethyl)-3,4-dihydro-2H-chromen-7-yl]benzenesulfonamide], for which the affinity, expressed as Ki, was 9 nM. This lies in the single-digit nanomolar range.
Next, `CC(CCc1ccccc1)NCC1CCc2ccc(NS(=O)(=O)c3ccccc3)cc2O1` (centres unmarked) [Example 20, N-(2-{[(1-methyl-3-phenylpropyl)amino]methyl}-3,4-dihydro-2H-chromen-7-yl)benzenesulfonamide]: 6 nM.
Next, `C[C@@H](NCC1CCc2ccc(N(C)S(=O)(=O)c3cccc4ccccc34)cc2O1)c1ccccc1` (stereo partly drawn) [Example 55, N-methyl-N-[2-({[(1R)-1-phenylethyl]amino}methyl)-3,4-dihydro-2H-chromen-7-yl]naphthalene-1-sulfonamide]: 4 nM; `C[C@@H](NCC1CCc2ccc(NS(=O)(=O)c3cccc4nonc34)cc2O1)c1ccccc1` (stereo partly drawn) [Example 32, N-[2-({[(1R)-1-Phenylethyl]amino}methyl)-3,4-dihydro-2H-chromen-7-yl]-2,1,3-benzoxadiazole-4-sulfonamide]: 5 nM; `C[C@@H](NCC1CCc2ccc(NS(=O)(=O)c3ccccc3)cc2O1)C1CCCCC1` (stereo partly drawn) [Example 27, N-[2-({[(1R)-1-cyclohexylethyl]amino}methyl)-3,4-dihydro-2H-chromen-7-yl]benzenesulfonamide]: 7 nM.
`O=S(=O)(Nc1ccc2c(c1)OC(CN1CCCCC1CCO)CC2)c1ccccc1` (centres unmarked) [Example 23, N-(2-{[2-(2-hydroxyethyl)piperidin-1-yl]methyl}-3,4-dihydro-2H-chromen-7-yl)benzenesulfonamide]: the Ki came out at 35 nM.
Then `C[C@@H](NCC1CCc2ccc(N(C)S(=O)(=O)c3ccc(Cl)cc3)cc2O1)c1ccccc1` (stereo partly drawn) [Example 53, 4-chloro-N-methyl-N-[2-({[(1R)-1-phenylethyl]amino}methyl)-3,4-dihydro-2H-chromen-7-yl]benzenesulfonamide], with 5 nM.
Then `O=S(=O)(Nc1ccc2c(c1)OC(CNCCCO)CC2)c1ccc(F)cc1` (centres unmarked) [Example 30, 4-fluoro-N-(2-{[(3-hydroxypropyl)amino]methyl}-3,4-dihydro-2H-chromen-7-yl)benzenesulfonamide], with 49 nM; and `COc1ccc(S(=O)(=O)Nc2ccc3c(c2)OC(CN[C@H](C)c2ccccc2)CC3)cc1` (stereo partly drawn) [Example 39, 4-methoxy-N-[2-({[(1R)-1-phenylethyl]amino}methyl)-3,4-dihydro-2H-chromen-7-yl]benzenesulfonamide], with 10 nM.
Next, `COc1ccc(S(=O)(=O)Nc2ccc3c(c2)OC(CNCCCO)CC3)cc1` (centres unmarked) [Example 29, N-(2-{[(3-hydroxypropyl)amino]methyl}-3,4-dihydro-2H-chromen-7-yl)-4-methoxybenzenesulfonamide]: 39 nM; `O=S(=O)(Nc1ccc2c(c1)OC(CNCc1ccccc1)CC2)c1ccccc1` (centres unmarked) [Example 8, N-{2-[(benzylamino)methyl]-3,4-dihydro-2H-chromen-7-yl}benzenesulfonamide]: 2 nM.
Compound `CC(C)CCCC(C)NCC1CCc2ccc(NS(=O)(=O)c3ccccc3)cc2O1` (centres unmarked) [Example 21, N-(2-{[(1,5-dimethylhexyl)amino]methyl}-3,4-dihydro-2H-chromen-7-yl)benzenesulfonamide] had an inhibition constant (Ki) of 8 nM.
Next, `C[C@@H](NCC1CCc2ccc(NS(=O)(=O)c3cccc4ccccc34)cc2O1)c1ccccc1` (stereo partly drawn) [Example 41, N-[2-({[(1R)-1-phenylethyl]amino}methyl)-3,4-dihydro-2H-chromen-7-yl]naphthalene-1-sulfonamide]: 4 nM; `CCCCOCCCNCC1CCc2ccc(NS(=O)(=O)c3ccccc3)cc2O1` (centres unmarked) [Example 7, N-(2-{[(3-butoxypropyl)amino]methyl}-3,4-dihydro-2H-chromen-7-yl)benzenesulfonamide]: 2 nM.
On to `CC(C)NCC1CCc2ccc(NS(=O)(=O)c3ccccc3)cc2O1` (centres unmarked) [Example 19, N-{2-[(isopropylamino)methyl]-3,4-dihydro-2H-chromen-7-yl}benzenesulfonamide], for which affinity was put at a Ki of 16 nM.
Consider `O=S(=O)(Nc1ccc2c(c1)OC(CN1CCOCC1)CC2)c1ccccc1` (centres unmarked) [Example 25, N-[2-(morpholin-4-ylmethyl)-3,4-dihydro-2H-chromen-7-yl]benzenesulfonamide], for which the Ki was 26 nM.
Next, `CC1CCCC(C)N1CC1CCc2ccc(NS(=O)(=O)c3ccccc3)cc2O1` (centres unmarked) [Example 24, N-{2-[(2,6-dimethylpiperidin-1-yl)methyl]-3,4-dihydro-2H-chromen-7-yl}benzenesulfonamide]: 72 nM; `O=S(=O)(Nc1ccc2c(c1)OC(CNCCCO)CC2)c1ccc(Cl)cc1` (centres unmarked) [Example 31, 4-chloro-N-(2-{[(3-hydroxypropyl)amino]methyl}-3,4-dihydro-2H-chromen-7-yl)benzenesulfonamide]: 11 nM.
Then `C[C@@H](NCC1CCc2ccc(NS(=O)(=O)c3c(Cl)nc4sccn34)cc2O1)c1ccccc1` (stereo partly drawn) [Example 33, 6-chloro-N-[2-({[(1R)-1-phenylethyl]amino}methyl)-3,4-dihydro-2H-chromen-7-yl]imidazo[2,1-b][1,3]thiazole-5-sulfonamide], with 3 nM; and `C[C@@H](NC[C@@H]1CCc2ccc(NS(=O)(=O)c3cccc4ccccc34)cc2O1)c1ccccc1` [Example 46B, N-[(2S)-2({[(1R)-1-phenylethyl]amino}methyl)-3,4-dihydro-2H-chromen-7-yl]naphthalene-1-sulfonamide Hydrochloride], with 2 nM.
Next, `C[C@@H](NCC1CCc2ccc(NS(=O)(=O)c3ccc(Cl)cc3)cc2O1)c1ccccc1` (stereo partly drawn) [Example 38, 4-chloro-N-[2-({[(1R)-1-phenylethyl]amino}methyl)-3,4-dihydro-2H-chromen-7-yl]benzenesulfonamide]: 5 nM.
Take `CC(=O)Nc1nc(C)c(S(=O)(=O)Nc2ccc3c(c2)OC(CN[C@H](C)c2ccccc2)CC3)s1` (stereo partly drawn) [Example 35, N-[4-methyl-5-({[2-({[(1R)-1-phenylethyl]amino}methyl)-3,4-dihydro-2H-chromen-7-yl]amino}sulfonyl)-1,3-thiazol-2-yl]acetamide]: the inhibitory constant (Ki) was 7 nM.
In turn, `C[C@@H](NCC1CCc2ccc(NS(=O)(=O)c3ccc(C(F)(F)F)cc3)cc2O1)c1ccccc1` (stereo partly drawn) [Example 43, N-[2-({[(1R)-1-phenylethyl]amino}methyl)-3,4-dihydro-2H-chromen-7-yl]-4-(trifluoromethyl)benzenesulfonamide] returned an inhibition constant (Ki) of 6 nM.
Next, `C[C@@H](NCC1CCc2ccc(N(C)S(=O)(=O)c3ccc(F)cc3)cc2O1)c1ccccc1` (stereo partly drawn) [Example 52, 4-fluoro-N-methyl-N-[2-({[(1R)-1-phenylethyl]amino}methyl)-3,4-dihydro-2H-chromen-7-yl]benzenesulfonamide]: 7 nM; `O=S(=O)(Nc1ccc2c(c1)OC(CNCCCOc1ccccc1)CC2)c1ccccc1` (centres unmarked) [Example 9, N-(2-{[(3-phenoxypropyl)amino]methyl}-3,4-dihydro-2H-chromen-7-yl)benzenesulfonamide]: 2 nM; `CC(C)C[C@H](CO)NCC1CCc2ccc(NS(=O)(=O)c3ccccc3)cc2O1` (stereo partly drawn) [Example 22, N-[2-({[(1R)-1-(hydroxymethyl)-3-methylbutyl]amino}methyl)-3,4-dihydro-2H-chromen-7yl]benzenesulfonamide]: 3 nM.
